What was measured:
[1] = system: cholesterol biosynthesis in HepG2 cells; assay: HepG2 cell culture model - 14C-acetate incorporation assay (cholesterol synthesis); format: cell-based; conditions: 3-4 hours incubation, 2-14C-acetate incorporation into digitonin-precipitable sterols, vs. vehicle controls
Method: HepG2 Cell Culture Model - 14C-Acetate Incorporation Assay
After 16 hours in LDS containing media, test compounds were added in dimethylsulfoxide vehicle (0.5% v/v final conc.) for an incubation period of 3-4 hours. Cholesterol synthesis was then directly determined by 2-14C-acetate (1.8 mCi/mmol, 0.5 µCi/ml) incorporation for 30 to 60 minutes (previously shown to be time-linear) into total digitonin-precipitable sterols. […] Percent inhibition was calculated from the average of duplicates vs. triplicate vehicle controls conducted simultaneously.

HMG-CoA reductase = assay: HepG2 cell culture model - HMG-CoA reductase suppression assay; format: cell-based; conditions: HepG2 cells, 4 hours of incubation at 37°, decrease in specific activity vs. vehicle controls
Method: HepG2 Cell Culture Model - HMG-CoA Reductase Suppression Assay
HMG-CoA reductase suppression in HepG2 cells was conducted by growing cells in RPMT-1640 plus 10% FBS on 100 mm plates, and when cells reached approximately 75% confluency, inducing with LDS (as described above) for 16 hours prior to assays. Compounds were added using dimethylsulfoxide vehicle (0.5% v/v, final) and after 4 hours of incubation at 37°, cells were harvested by scraping. Cell pellets were rinsed and lysed by sonication in 1.7 ml cold 50 mM imidazole-HCl, pH 7.2, 50 mM NaCl, 10 mM EDTA, 10 mM EGTA, 5mM DTT, and 40 µM leupeptin). Lysates were centrifuged at 150 x g and the supernatant was centrifuged at 100,000 x g in a Beckman airfuge to isolate the post-nuclear total membrane fraction. The membranes were resuspended in 50 mM imidazole-HCl, pH 7.2, 250 mM NaCl, 5 mM DTT, and 20 µM leupeptin and used for the assay of HMG-CoA reductase activity by the radiochemical procedure as described previously by Parker et al., J. Biol. Chem., 264: 4877-4887, (1989). Values were normalized for protein content by the Lowry method as cited previously (ibid). HMG-CoA reductase percent suppression was calculated as the decrease in specific activity of HMG-CoA reductase for treated cells vs. controls receiving vehicle. Averages of duplicate cell determinations assayed in duplicate were taken.

HMGR = assay: In vivo evaluation in normocholesterolemic chickens - specific activity of HMGR; conditions: 6-week old male chickens, 50 ppm in diet for four weeks
Method: (§1) In Vivo Biological Evaluation in Normocholesterolemic Chickens
(§2) Newborn male chicks (10 for each group) were raised on a standard corn-soybean based control diet for two weeks and then switched to either control or experimental diets for four weeks. Drug treatment consisted of the addition of test compounds to the corn-soybean-based diet at a concentration of 50 ppm. At the end of the feeding period, all the birds were fasted (36 hours) and refed (48 hours) to induce cholesterolgenic enzymes prior to sacrifice. The specific activity of HMGR, total serum cholesterol levels, LDL cholesterol and HDL cholesterol pools were determined (Table 6).

[2] = system: Normocholesterolemic Chickens; assay: In vivo evaluation in normocholesterolemic chickens - serum cholesterol pools; conditions: 6-week old male chickens, 50 ppm in diet for four weeks; for Total Cholesterol: serum
Method: as §1, §2

Compound | inhibition at 10 µM ([1]; Homo sapiens, read-out: Sterol Biosynthesis % Inhibition 10µM) [%] | HMG-CoA Reductase Suppression % 10µM (HMG-CoA reductase) [%] | HMGR (HMGR) | HDL Cholesterol [2] | LDL Cholesterol [2] | Total Cholesterol [2] | Sterol Biosynthesis % Inhibition 10µM [1] [%]
CC(C)=CCC/C(C)=C/CC/C(C)=C/CCCOc1ccc(NS(C)(=O)=O)cc1 [Example 25, N-[4-[(5,9,13-Trimethyl-4(E), 8(E),12-tetradecatrienyl)oxy]phenyl]methanesulfonamide] | 77 | 9 | 86 % of Control | 91 % of Control | 45 % of Control | 72 % of Control | –
γ-tocotrienol [reference compound] | – | 63 | 82 % of Control | 91 % of Control | 44 % of Control | 75 % of Control | 69
